Assays:
LTK(h) = molecular target: T1, LTK(h) (Homo sapiens, UniProt P29376); assay: Kinase panel (Eurofins); assay type: biochemical; conditions: n = 2; for inhibition at 1 µM: at 1 μmol/L; for IC50: read-out: IC50 kinase inhibition
T1 construct: purchased Eurofins
Source text: (§1) These receptors have a methionine gatekeeper in their kinase domains, and are related to hyperglycemia in other clinical trials of EGFR TKI, such as Co-1686.

IGF-1R(h) = molecular target: T2, IGF-1R(h) (Homo sapiens, UniProt P08069); assay: Kinase panel (Eurofins); assay type: biochemical; conditions: n = 2; for inhibition at 1 µM: at 1 μmol/L; for IC50: read-out: IC50 kinase inhibition
T2 construct: purchased Eurofins
T2 sequence (P08069 31-1367): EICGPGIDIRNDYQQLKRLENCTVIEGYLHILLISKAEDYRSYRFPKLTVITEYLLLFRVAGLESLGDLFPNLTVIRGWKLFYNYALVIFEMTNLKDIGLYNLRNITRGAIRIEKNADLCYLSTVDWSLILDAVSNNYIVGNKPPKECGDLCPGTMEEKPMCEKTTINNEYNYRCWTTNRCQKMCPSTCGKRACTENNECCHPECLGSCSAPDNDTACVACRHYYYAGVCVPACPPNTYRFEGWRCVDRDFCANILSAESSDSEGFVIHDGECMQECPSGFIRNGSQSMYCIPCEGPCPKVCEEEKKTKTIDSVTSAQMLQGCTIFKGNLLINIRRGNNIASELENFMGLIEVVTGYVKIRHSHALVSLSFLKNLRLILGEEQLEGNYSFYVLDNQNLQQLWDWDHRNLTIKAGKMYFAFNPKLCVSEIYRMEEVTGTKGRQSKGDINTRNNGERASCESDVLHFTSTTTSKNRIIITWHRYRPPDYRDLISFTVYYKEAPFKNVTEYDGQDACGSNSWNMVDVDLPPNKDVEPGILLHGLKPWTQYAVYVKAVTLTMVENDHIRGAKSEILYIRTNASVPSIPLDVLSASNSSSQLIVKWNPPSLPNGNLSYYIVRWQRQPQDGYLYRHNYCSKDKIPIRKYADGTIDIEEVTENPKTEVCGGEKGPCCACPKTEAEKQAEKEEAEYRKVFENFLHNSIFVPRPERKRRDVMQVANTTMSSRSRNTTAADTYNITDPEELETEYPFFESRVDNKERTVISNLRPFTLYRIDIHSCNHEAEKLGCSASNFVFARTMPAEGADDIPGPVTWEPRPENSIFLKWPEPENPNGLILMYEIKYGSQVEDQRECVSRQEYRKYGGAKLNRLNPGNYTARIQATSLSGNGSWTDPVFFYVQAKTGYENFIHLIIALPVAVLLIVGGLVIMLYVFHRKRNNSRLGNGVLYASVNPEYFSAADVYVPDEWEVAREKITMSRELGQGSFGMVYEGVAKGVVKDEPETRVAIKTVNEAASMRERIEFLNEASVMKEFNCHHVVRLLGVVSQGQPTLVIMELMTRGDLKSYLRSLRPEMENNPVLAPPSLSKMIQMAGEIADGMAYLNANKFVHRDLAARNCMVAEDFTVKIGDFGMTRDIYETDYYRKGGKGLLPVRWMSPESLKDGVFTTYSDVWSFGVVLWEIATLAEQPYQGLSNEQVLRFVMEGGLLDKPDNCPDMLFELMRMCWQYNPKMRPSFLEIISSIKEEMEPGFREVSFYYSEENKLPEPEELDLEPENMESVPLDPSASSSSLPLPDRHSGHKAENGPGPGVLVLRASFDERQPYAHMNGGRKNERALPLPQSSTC
Source text: as §1

LRRK2(h) = molecular target: T3, LRRK2(h) (Homo sapiens, UniProt Q5S007); assay: Kinase panel (Eurofins); assay type: biochemical; conditions: n = 2; for inhibition at 1 µM: at 1 μmol/L; for IC50: read-out: IC50 kinase inhibition
T3 construct: purchased Eurofins
Source text: as §1

BRK(h) = molecular target: T4, BRK(h) (Homo sapiens, UniProt Q13882); assay: Kinase panel (Eurofins); assay type: biochemical; conditions: n = 2; for inhibition at 1 µM: at 1 μmol/L; for IC50: read-out: IC50 kinase inhibition
T4 construct: purchased Eurofins
T4 sequence (Q13882 whole entry): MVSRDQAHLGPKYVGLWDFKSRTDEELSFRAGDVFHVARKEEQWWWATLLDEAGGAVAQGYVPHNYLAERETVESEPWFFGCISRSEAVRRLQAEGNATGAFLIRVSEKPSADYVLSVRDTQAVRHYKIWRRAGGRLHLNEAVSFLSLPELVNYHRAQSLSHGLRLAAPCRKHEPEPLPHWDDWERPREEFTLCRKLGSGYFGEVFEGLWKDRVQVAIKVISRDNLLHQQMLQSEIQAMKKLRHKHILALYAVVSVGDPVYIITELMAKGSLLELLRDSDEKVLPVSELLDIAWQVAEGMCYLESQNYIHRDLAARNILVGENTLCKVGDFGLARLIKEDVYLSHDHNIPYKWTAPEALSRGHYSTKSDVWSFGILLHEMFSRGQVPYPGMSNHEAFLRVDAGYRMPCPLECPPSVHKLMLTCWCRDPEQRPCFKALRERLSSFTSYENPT
Source text: as §1

Ros(h) = molecular target: T5, Ros(h) (Homo sapiens, UniProt P08922); assay: Kinase panel (Eurofins); assay type: biochemical; conditions: n = 2; for inhibition at 1 µM: at 1 μmol/L; for IC50: read-out: IC50 kinase inhibition
T5 construct: purchased Eurofins
T5 sequence (P08922 28-2347): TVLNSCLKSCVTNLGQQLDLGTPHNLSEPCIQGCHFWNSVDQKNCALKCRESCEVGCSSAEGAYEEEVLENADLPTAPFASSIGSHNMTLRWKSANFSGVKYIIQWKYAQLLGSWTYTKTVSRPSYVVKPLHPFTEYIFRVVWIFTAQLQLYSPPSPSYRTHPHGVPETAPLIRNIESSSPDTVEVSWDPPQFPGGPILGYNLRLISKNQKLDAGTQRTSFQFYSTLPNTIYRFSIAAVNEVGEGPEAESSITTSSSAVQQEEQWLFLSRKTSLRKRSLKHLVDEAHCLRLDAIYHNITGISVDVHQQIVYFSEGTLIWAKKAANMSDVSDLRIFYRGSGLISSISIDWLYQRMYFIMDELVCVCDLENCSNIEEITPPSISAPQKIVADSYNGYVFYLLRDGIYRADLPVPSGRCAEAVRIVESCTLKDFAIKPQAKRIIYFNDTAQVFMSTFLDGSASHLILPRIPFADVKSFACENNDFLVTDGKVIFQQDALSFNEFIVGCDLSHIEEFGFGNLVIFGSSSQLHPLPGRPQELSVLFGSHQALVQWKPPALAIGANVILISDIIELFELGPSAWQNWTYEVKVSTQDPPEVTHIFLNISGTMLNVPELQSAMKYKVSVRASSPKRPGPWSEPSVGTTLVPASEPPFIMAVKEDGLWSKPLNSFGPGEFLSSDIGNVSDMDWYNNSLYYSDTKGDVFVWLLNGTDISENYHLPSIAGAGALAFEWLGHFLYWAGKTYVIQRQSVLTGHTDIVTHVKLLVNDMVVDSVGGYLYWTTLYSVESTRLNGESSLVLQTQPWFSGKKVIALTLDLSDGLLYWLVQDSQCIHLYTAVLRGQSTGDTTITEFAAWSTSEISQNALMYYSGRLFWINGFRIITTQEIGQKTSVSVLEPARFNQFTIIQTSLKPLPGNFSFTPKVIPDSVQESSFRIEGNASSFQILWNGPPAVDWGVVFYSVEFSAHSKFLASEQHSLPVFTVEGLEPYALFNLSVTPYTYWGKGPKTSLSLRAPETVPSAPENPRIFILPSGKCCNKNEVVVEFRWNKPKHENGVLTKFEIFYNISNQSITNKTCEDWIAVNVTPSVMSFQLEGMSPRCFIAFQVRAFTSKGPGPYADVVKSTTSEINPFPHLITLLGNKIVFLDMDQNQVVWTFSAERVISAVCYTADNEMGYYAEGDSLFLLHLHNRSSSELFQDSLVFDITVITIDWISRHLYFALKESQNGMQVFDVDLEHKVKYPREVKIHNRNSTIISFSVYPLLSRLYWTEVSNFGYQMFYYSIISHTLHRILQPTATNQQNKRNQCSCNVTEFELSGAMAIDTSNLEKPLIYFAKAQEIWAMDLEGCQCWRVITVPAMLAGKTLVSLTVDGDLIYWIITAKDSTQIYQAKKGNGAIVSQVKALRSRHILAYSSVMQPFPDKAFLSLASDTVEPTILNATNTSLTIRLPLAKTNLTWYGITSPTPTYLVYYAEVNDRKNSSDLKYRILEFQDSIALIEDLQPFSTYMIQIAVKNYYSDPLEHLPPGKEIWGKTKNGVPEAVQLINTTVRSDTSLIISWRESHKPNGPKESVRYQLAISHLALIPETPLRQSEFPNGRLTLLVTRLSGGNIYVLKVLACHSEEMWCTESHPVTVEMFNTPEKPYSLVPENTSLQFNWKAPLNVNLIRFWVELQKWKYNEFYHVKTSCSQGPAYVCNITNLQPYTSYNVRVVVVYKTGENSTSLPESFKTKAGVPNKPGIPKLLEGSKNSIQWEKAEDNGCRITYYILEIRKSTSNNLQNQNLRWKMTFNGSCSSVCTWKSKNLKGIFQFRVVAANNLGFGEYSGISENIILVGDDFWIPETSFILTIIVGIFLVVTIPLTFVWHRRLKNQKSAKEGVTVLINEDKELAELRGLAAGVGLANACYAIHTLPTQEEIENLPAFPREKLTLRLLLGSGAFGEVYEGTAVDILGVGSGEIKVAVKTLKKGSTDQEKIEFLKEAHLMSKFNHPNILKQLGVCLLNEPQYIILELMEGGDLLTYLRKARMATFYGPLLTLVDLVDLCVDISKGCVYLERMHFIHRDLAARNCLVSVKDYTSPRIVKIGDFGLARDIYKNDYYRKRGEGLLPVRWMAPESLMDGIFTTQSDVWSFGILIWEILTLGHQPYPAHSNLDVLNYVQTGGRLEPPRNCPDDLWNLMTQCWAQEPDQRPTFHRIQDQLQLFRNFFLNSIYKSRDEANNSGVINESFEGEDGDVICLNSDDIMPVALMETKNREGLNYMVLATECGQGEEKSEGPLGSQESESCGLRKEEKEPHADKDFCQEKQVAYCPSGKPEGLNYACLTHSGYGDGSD
Source text: as §1

JAK3(h) = molecular target: T6, JAK3(h) (Homo sapiens, UniProt P52333); assay: Kinase panel (Eurofins); assay type: biochemical; conditions: n = 2; for inhibition at 1 µM: at 1 μmol/L; for IC50: read-out: IC50 kinase inhibition
T6 construct: purchased Eurofins
T6 sequence (P52333 1-1124): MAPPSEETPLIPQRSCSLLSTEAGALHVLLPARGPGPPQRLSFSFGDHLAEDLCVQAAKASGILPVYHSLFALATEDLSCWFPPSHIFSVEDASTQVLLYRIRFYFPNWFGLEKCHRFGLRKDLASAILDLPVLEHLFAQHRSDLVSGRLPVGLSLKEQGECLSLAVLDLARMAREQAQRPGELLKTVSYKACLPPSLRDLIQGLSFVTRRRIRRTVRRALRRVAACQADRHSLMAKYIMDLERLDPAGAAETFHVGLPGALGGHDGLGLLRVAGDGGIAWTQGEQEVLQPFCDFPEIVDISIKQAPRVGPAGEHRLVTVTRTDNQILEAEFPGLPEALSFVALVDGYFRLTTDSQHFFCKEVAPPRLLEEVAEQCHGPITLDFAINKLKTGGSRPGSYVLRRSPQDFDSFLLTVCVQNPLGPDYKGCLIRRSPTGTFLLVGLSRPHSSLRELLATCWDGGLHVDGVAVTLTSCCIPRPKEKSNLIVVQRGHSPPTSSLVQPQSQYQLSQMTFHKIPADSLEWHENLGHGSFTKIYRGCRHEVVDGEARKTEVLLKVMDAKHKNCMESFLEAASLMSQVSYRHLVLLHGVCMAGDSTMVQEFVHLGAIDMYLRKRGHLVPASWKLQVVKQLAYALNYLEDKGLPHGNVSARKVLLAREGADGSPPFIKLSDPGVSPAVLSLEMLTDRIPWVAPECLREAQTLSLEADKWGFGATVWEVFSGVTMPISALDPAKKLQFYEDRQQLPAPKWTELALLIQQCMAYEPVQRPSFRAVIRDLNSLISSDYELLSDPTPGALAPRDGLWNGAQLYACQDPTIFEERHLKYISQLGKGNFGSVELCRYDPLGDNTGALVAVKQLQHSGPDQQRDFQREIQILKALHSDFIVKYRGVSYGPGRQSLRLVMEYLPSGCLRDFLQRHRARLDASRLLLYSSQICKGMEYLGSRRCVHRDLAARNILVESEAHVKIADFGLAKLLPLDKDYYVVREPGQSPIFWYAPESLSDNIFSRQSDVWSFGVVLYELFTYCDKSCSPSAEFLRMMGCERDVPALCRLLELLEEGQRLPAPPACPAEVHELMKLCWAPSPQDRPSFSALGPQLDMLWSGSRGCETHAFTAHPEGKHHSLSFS
Source text: as §1

IGF-1R(h), activated = molecular target: T7, IGF-1R(h), activated (Homo sapiens, UniProt P08069); assay: Kinase panel (Eurofins); assay type: biochemical; conditions: n = 2; for inhibition at 1 µM: at 1 μmol/L; for IC50: read-out: IC50 kinase inhibition
T7 construct: purchased Eurofins
T7 sequence (P08069 31-1367): as the sequence (P08069 31-1367) above
Source text: as §1

IR(h), activated = molecular target: T8, IR(h), activated (Homo sapiens, UniProt P06213); assay: Kinase panel (Eurofins); assay type: biochemical; conditions: n = 2; for inhibition at 1 µM: at 1 μmol/L; for IC50: read-out: IC50 kinase inhibition
T8 construct: purchased Eurofins
Source text: as §1

Mnk2(h) = molecular target: T9, Mnk2(h) (Homo sapiens, UniProt Q9HBH9); assay: Kinase panel (Eurofins); assay type: biochemical; conditions: n = 2; for inhibition at 1 µM: at 1 μmol/L; for IC50: read-out: IC50 kinase inhibition
T9 construct: purchased Eurofins
Source text: as §1

EGFR^WT = EGFR^WT (Homo sapiens, UniProt P00533); assay: EGFR kinase inhibition assay (HTRF); assay type: biochemical; conditions: 30 μmol/L ATP, no pre-incubation, n = 3
Experimental: (§2) The sequence of the substrate is proprietary to CisBio. […] Kinase activity assays were performed in a total reaction volume of 3 μl per well. […] The substrate mixture (1.5 μl) consisted of 1 μmol/L TK substrate, 30 μmol/L ATP, 1 mmol/L DTT, and 10 mmol/L MgCl2. […] The plates were incubated for 1 h before being read on Pherastar using standard HTRF settings. […] There was no pre-incubation of the test compounds with the enzyme/substrate mixture prior to ATP addition. For IC50 calculation, data were analyzed using XLFit version 5.3.

EGFR^L858R = EGFR^L858R (Homo sapiens, UniProt P00533, L858R); assay: EGFR kinase inhibition assay (HTRF); assay type: biochemical; conditions: 30 μmol/L ATP, no pre-incubation, n = 3
Experimental: as §2

EGFR^d746–750 = EGFR^d746–750 (Homo sapiens, UniProt P00533, DEL746-750); assay: EGFR kinase inhibition assay (HTRF); assay type: biochemical; conditions: 30 μmol/L ATP, no pre-incubation, n = 3
Experimental: as §2

EGFR^L858R/T790M = molecular target: T10, EGFR^L858R/T790M (Homo sapiens, UniProt P00533, L858R/T790M); assay: EGFR kinase inhibition assay (HTRF); assay type: biochemical; conditions: 30 μmol/L ATP, no pre-incubation, n = 3
T10 construct: with amino acids 696-end containing the mutations T790M and L858R; GST (N); purchased Millipore
Experimental: as §2

EGFR^L861Q = EGFR^L861Q (Homo sapiens, UniProt P00533, L861Q); assay: EGFR kinase inhibition assay (HTRF); assay type: biochemical; conditions: 30 μmol/L ATP, no pre-incubation, n = 3
Experimental: as §2

EGFR^d746–750/T790M = EGFR^d746–750/T790M (Homo sapiens, UniProt P00533, DEL746-750/T790M); assay: EGFR kinase inhibition assay (HTRF); assay type: biochemical; conditions: 30 μmol/L ATP, no pre-incubation, n = 3
Experimental: as §2

[1] = tested on: EGFR phosphorylation in PC-9 cells; assay: Phosphorylation of EGFR assay after wash-out; assay type: cell-based, human; conditions: 0.1 μmol/L for 2 h, then washed out
Experimental: (§3) Cells (NCI-H1975/PC-9/[…]) were seeded into a 384-well plate (10,000 cells/well), grown for 24 h, and then treated with 0.1 μmol/L of test compounds for 2 h. Cells were washed with fresh medium once. Then, 50 μl of medium was added in each well and the plate was cultured in an incubator for 0, 1, 2, 6 and 24 h. Cells were washed with ice-cold Hanks Balanced Salt Solution (HBSS) before extraction with 25 μl cell lysis buffer. The phosphorylation levels of EGFR were measured as described above.

[2] = tested on: EGFR phosphorylation in NCI-H1975 cells; assay: Phosphorylation of EGFR assay after wash-out; assay type: cell-based, human; conditions: 0.1 μmol/L for 2 h, then washed out
Experimental: as §3

T1 sequence (P29376 17-864): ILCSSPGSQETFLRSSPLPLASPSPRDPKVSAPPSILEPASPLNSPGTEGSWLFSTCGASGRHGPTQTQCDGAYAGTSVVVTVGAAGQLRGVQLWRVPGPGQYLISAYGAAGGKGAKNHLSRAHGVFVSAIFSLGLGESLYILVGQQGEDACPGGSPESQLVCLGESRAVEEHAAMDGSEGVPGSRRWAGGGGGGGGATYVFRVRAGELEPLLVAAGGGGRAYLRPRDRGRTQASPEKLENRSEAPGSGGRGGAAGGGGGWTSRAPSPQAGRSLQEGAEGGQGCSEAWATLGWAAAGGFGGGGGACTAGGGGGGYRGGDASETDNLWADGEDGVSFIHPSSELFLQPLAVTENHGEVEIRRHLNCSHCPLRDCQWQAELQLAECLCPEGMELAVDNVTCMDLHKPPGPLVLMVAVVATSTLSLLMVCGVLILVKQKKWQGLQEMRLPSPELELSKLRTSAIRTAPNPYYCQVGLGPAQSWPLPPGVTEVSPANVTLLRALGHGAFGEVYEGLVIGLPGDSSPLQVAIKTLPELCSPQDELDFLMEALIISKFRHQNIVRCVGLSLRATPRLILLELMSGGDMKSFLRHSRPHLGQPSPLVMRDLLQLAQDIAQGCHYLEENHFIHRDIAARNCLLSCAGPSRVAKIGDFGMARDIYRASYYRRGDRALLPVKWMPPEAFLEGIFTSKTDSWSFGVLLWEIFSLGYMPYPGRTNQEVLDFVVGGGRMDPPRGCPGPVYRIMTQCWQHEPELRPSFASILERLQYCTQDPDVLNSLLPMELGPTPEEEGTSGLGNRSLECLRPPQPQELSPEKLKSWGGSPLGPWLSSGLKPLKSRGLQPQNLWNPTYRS

inhibition at 1 µM (LTK(h))	IC50 (LTK(h))	inhibition at 1 µM (IGF-1R(h))	IC50 (IGF-1R(h))	inhibition at 1 µM (LRRK2(h))	IC50 (LRRK2(h))	inhibition at 1 µM (BRK(h))	IC50 (BRK(h))	inhibition at 1 µM (Ros(h))	IC50 (Ros(h))	inhibition at 1 µM (JAK3(h))	IC50 (JAK3(h))	inhibition at 1 µM (IGF-1R(h), activated)	IC50 (IGF-1R(h), activated)	inhibition at 1 µM (IR(h), activated)	IC50 (IR(h), activated)	inhibition at 1 µM (Mnk2(h))	IC50 (Mnk2(h))	IC50 (EGFR^WT)	IC50 (EGFR^L858R)	Structure (SMILES)	also measured
83%	81 nM	38%	574 nM	89%	82 nM	85%	62 nM	96%	50 nM	61%	1750 nM	46%	499 nM	58%	241 nM	63%	23 nM	18 nM	0.7 nM	C=CC(=O)Nc1cc(Nc2nccc(-c3c4n(c5ccccc35)CCCC4)n2)c(OC)cc1N(C)CCN(C)C [SH-1028]	IC50 (EGFR^d746–750): 1.4 nM; IC50 (EGFR^L858R/T790M): 0.1 nM; IC50 (EGFR^L861Q): 4 nM; IC50 (EGFR^d746–750/T790M): 0.89 nM; duration of continued inhibition of EGFR phosphorylation after wash-out [1]: at least 6 h; duration of continued inhibition of EGFR phosphorylation after wash-out [2]: at least 6 h
93%	61 nM	70%	812 nM	93%	120 nM	91%	80 nM	98%	47 nM	55%	1370 nM	64%	709 nM	74%	321 nM	69%	22 nM	144 nM	6 nM	C=CC(=O)Nc1cc(Nc2nccc(-c3c4n(c5ccccc35)CCCC4)n2)c(OC)cc1N(C)CCNC [Imp3]	IC50 (EGFR^d746–750): 1.7 nM; IC50 (EGFR^L858R/T790M): 1 nM; IC50 (EGFR^L861Q): 32 nM; IC50 (EGFR^d746–750/T790M): 1.1 nM; duration of continued inhibition of EGFR phosphorylation after wash-out [1]: at least 6 h; duration of continued inhibition of EGFR phosphorylation after wash-out [2]: at least 6 h

Reference: article PMC8111447 (Frontiers in Pharmacology, 2021)
